For test [1], the target named is T1, recombinant human JAK1 kinase domain protein (Residues 854-1154) (Homo sapiens, UniProt P23458).
T1 construct: human JAK1 kinase domain protein (Residues 854-1154); purchased Proteros Biostructures GmbH (Martinsried, Germany); host or cells: insect cells
The experiment in a line: JAK1 biochemical assay (LabChip mobility shift, Ki). Particulars: read-out: Biochem JAK1 Ki.

Test [2] has as its system IL-13-stimulated STAT6 phosphorylation in human lung bronchial epithelial BEAS-2B cell line. Description: P-STAT6 BEAS-2B + IL-13 cell assay. It counts as cell-based. Particulars: Homo sapiens, BEAS-2B, BEAS2B cells, IL13 stimulation; read-out: Cellular JAK1 PSTAT6 BEAS2B + IL13. In outline: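 BEAS-2B cells grown 48 h at 37 °C, pre-treated 1 h with compound (10-point 1:2 dilution curve), then stimulated 15 min with human recombinant IL-13 (250 ng/mL stock). Lysate P-STAT6 (Tyr641) read by MSD sandwich ELISA with total-STAT6 capture; IC50 from four-parameter logistic fit of control-normalised data.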

Test [3] deals with Recombinant human JAK2 kinase domain protein (Residues 812-1132) (Homo sapiens, UniProt O60674). The experiment in a line: JAK2 biochemical assay (LabChip mobility shift, Ki). Conditions: Biochem JAK2 Ki.
Recombinant human JAK2 kinase domain protein (Residues 812-1132), sequence (O60674 812-1132): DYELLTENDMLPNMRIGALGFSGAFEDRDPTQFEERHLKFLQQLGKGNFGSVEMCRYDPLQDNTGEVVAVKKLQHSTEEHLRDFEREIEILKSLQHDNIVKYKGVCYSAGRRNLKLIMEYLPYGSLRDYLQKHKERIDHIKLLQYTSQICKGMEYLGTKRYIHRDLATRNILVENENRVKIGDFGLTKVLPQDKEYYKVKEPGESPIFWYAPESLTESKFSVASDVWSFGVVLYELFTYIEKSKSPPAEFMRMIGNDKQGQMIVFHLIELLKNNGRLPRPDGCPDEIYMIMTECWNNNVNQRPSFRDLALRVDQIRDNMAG

T1 sequence (P23458 854-1154): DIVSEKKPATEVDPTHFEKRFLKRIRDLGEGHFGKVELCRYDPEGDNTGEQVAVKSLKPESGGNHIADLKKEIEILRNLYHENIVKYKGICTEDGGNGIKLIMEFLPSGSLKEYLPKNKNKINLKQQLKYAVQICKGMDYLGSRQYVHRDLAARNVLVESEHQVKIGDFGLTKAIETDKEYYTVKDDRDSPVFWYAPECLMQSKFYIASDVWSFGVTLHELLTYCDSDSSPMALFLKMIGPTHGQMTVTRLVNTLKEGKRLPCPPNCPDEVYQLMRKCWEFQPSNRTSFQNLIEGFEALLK

A word on the Ki: it is the dissociation constant of the complex between target and ligand, obtained from inhibition or displacement. For the molecule `Cn1cc(NC(=O)c2cnn3cccnc23)c(-c2cc(Oc3cc(F)cc(C4(O)CNC4)c3)ccc2OC(F)F)n1` [Example 95, N-[3-[2-(difluoromethoxy)-5-[3-fluoro-5-(3-hydroxyazetidin-3-yl)phenoxy]phenyl]-1-methyl-pyrazol-4-yl]pyrazolo[1,5-a]pyrimidine-3-carboxamide], the results for the Ki in test [1] and in test [3] were 0.17 nM and 0.23 nM, respectively. Also, the IC50 in test [2] was 110 nM.
The like results for `CN1CC(O)(c2cccc(Oc3ccc(OC(F)F)c(-c4nn(CCO)cc4NC(=O)c4cnn5cccnc45)c3)c2)C1` [Example 97, N-[3-[2-(difluoromethoxy)-5[3-(3-hydroxy-1-methyl-azetidin-3-yl)phenoxy]phenyl]-1-(2-hydroxyethyl)pyrazol-4-yl]pyrazolo[1,5-a]pyrimidine-3-carboxamide] were, in that order, 0.85 nM, 0.6 nM and 300 nM.
The like results for `CN1CC(O)(c2cccc(Oc3ccc(OC(F)F)c(-c4nn(C5CCOCC5)cc4NC(=O)c4cnn5cccnc45)c3)c2)C1` [Example 98, N-[3-[2-(difluoromethoxy)-5-[3-(3-hydroxy-l-methyl-azetidin-3-yl)phenoxy]phenyl]-1-tetrahydropyran-4-yl-pyrazol-4-yl]pyrazolo[1,5-a]pyrimidine-3-carboxamide] were, in that order, 0.87 nM, 2.8 nM and 61 nM.
For the molecule `Cn1cc(NC(=O)c2cnn3cccnc23)c(-c2cc(Oc3cc(Cl)cc(C4(O)CNC4)c3)ccc2OC(F)F)n1` [Example 99, N-[3-[5-[3-chloro-5-(3-hydroxyazetidin-3-yl)phenoxy]-2-(difluoromethoxy)phenyl]-1-methyl-pyrazol-4-yl]pyrazolo[1,5-a]pyrimidine-3-carboxamide], the Ki came to 0.19 nM in test [1] and 0.31 nM in test [3]. Also, the IC50 in test [2] was 78 nM.
As to `CN1CC(O)(c2cccc(Oc3ccc(OC(F)F)c(-c4nn(C5COC5)cc4NC(=O)c4cnn5cccnc45)c3)c2)C1` [Example 100, N-[3-[2-(difluoromethoxy)-5-[3-(3-hydroxy-1-methyl-azetidin-3-yl)phenoxy]phenyl]-1-(oxetan-3-yl)pyrazol-4-yl]pyrazolo[1,5-a]pyrimidine-3-carboxamide], the inhibition constant (Ki) in test [1] came to 0.4 nM; in test [3], 0.46 nM. In addition, in test [2], the IC50 turned out to be 46 nM.
The like results for `Cc1cc(Oc2ccc(OC(F)F)c(-c3nn(C)cc3NC(=O)c3cnn4cccnc34)c2)cc(C2(O)CNC2)c1` [Example 101, N-[3-[2-(difluoromethoxy)-5-[3-(3-hydroxyazetidin-3-yl)-5-methyl-phenoxy]phenyl]-1-methyl-pyrazol-4-yl]pyrazolo[1,5-a]pyrimidine-3-carboxamide] were, in that order, 0.2 nM, 0.23 nM and 180 nM.
Take `Cc1cc(Oc2ccc(OC(F)F)c(-c3nn(C)cc3NC(=O)c3cnn4cccnc34)c2)cc(C2(O)CN(C)C2)c1` [Example 102, N-[3-[2-(difluoromethoxy)-5-[3-(3-hydroxy-1-methyl-azetidin-3-yl)-5-methyl-phenoxy]phenyl]-1-methyl-pyrazol-4-yl]pyrazolo[1,5-a]pyrimidine-3-carboxamide]: the Ki in test [1] is 0.44 nM; in test [3] it was 0.43 nM. In addition, the IC50 in test [2] came to 24 nM.
In the case of `Cn1cc(NC(=O)c2cnn3cccnc23)c(-c2cc(Oc3ccc(F)c(C4(O)CNC4)c3)ccc2OC(F)F)n1` [Example 103, N-[3-[2-(difluoromethoxy)-5-[4-fluoro-3-(3-hydroxyazetidin-3-yl)phenoxy]phenyl]-1-methyl-pyrazol-4-yl]pyrazolo[1,5-a]pyrimidine-3-carboxamide], the Ki in test [1] amounted to 0.48 nM; in test [3], 0.54 nM. Moreover, the IC50 in test [2] was found to be 260 nM.
Turning to `CN1CC(O)(c2cc(Oc3ccc(OC(F)F)c(-c4nn(C)cc4NC(=O)c4cnn5cccnc45)c3)ccc2F)C1` [Example 104, N-[3-[2-(difluoromethoxy)-5-[4-fluoro-3-(3-hydroxy-1-methyl-azetidin-3-yl)phenoxy]phenyl]-1-methyl-pyrazol-4-yl]pyrazolo[1,5-a]pyrimidine-3-carboxamide], the inhibition constant Ki amounted to 0.73 nM in test [1] and 0.75 nM in test [3]. In test [2], the IC50 stood at 45 nM.
The like results for `Cn1cc(NC(=O)c2cnn3cccnc23)c(-c2cc(Oc3cc(C(F)(F)F)cc(C4(O)CNC4)c3)ccc2OC(F)F)n1` [Example 105, N-[3-[2-(difluoromethoxy)-5-[3-(3-hydroxyazetidin-3-yl)-5-(trifluoromethyl)phenoxy]phenyl]-1-methyl-pyrazol-4-yl]pyrazolo[1,5-a]pyrimidine-3-carboxamide] were, in that order, 0.49 nM, 0.43 nM and 81 nM.
The like results for `CN1CC(O)(c2cc(Oc3ccc(OC(F)F)c(-c4nn(C)cc4NC(=O)c4cnn5cccnc45)c3)cc(C(F)(F)F)c2)C1` [Example 106, N-[3-[2-(difluoromethoxy)-5-[3-(3-hydroxy-1-methyl-azetidin-3-yl)-5-(trifluoromethyl)phenoxy]phenyl]-1-methyl-pyrazol-4-yl]pyrazolo[1,5-a]pyrimidine-3-carboxamide] were, in that order, 1.6 nM, 1.7 nM and 74 nM.
Take `CCn1cc(NC(=O)c2cnn3cccnc23)c(-c2cc(Oc3cc(F)cc(C4(O)CN(C)C4)c3)ccc2OC(F)F)n1` [Example 107, N-[3-[2-(difluoromethoxy)-5-[3-fluoro-5-(3-hydroxy-1-methyl-azetidin-3-yl)phenoxy]phenyl]-1-ethyl-pyrazol-4-yl]pyrazolo[1,5-a]pyrimidine-3-carboxamide]: the figures for the Ki in test [1] and in test [3] were 0.43 nM and 0.49 nM, respectively. Further, in test [2], the IC50 is 37 nM.
As for `CCn1cc(NC(=O)c2cnn3cccnc23)c(-c2cc(Oc3cccc(C4(O)CN(C)C4)c3)ccc2OC(F)F)n1` [Example 108, N-[3-[2-(difluoromethoxy)-5-[3-(3-hydroxy-l-methyl-azetidin-3-yl)phenoxy]phenyl]-1-ethyl-pyrazol-4-yl]pyrazolo[1,5-a]pyrimidine-3-carboxamide], the Ki in test [1] turned out to be 0.69 nM; in test [3] it was 0.72 nM. The IC50 in test [2] turned out to be 60 nM.
The like results for `Cn1cc(NC(=O)c2cnn3cccnc23)c(-c2cc(Oc3cc(C4CC4)cc(C4(O)CNC4)c3)ccc2OC(F)F)n1` [Example 109, N-[3-[5-[3-cyclopropyl-5-(3-hydroxyazetidin-3-yl)phenoxy]-2-(difluoromethoxy)phenyl]-1-methyl-pyrazol-4-yl]pyrazolo[1,5-a]pyrimidine-3-carboxamide] were, in that order, 0.88 nM, 0.58 nM and 250 nM.
The like results for `CN1CC(O)(c2cc(Oc3ccc(OC(F)F)c(-c4nn(C)cc4NC(=O)c4cnn5cccnc45)c3)cc(C3CC3)c2)C1` [Example 110, N-[3-[5-[3-cyclopropyl-5-(3-hydroxy-l-methyl-azetidin-3-yl)phenoxy]-2-(difluoromethoxy)phenyl]-1-methyl-pyrazol-4-yl]pyrazolo[1,5-a]pyrimidine-3-carboxamide] were, in that order, 0.69 nM, 0.36 nM and 30 nM.
The like results for `CCn1cc(NC(=O)c2cnn3cccnc23)c(-c2cc(Oc3cc(F)cc(C4(O)CNC4)c3)ccc2OC(F)F)n1` [Example 111, N-[3-[2-(difluoromethoxy)-5-[3-fluoro-5-[3-hydroxyazetidin-3-yl)phenoxy]phenyl]-1-ethyl-pyrazol-4-yl]pyrazolo[1,5-a]pyrimidine-3-carboxamide] were, in that order, 0.38 nM, 0.56 nM and 270 nM.
For the molecule `CCn1cc(NC(=O)c2cnn3cccnc23)c(-c2cc(Oc3cccc(C4(O)CNC4)c3)ccc2OC(F)F)n1` [Example 112, N-[3-[2-(difluoromethoxy)-5-[3-(3-hydroxyazetidin-3-yl)phenoxy]phenyl]-1-ethyl-pyrazol-4-yl]pyrazolo[1,5-a]pyrimidine-3-carboxamide], the figures for the Ki in test [1] and in test [3] were 0.38 nM and 0.46 nM, respectively. Moreover, the IC50 in test [2] came out at 110 nM.
The like results for `CN1CC(n2cc(Oc3ccc(OC(F)F)c(-c4nn(C)cc4NC(=O)c4cnn5cccnc45)c3)cn2)C1` [Example 115, N-[3-[2-(difluoromethoxy)-5-[1-(1-methylazetidin-3-yl)pyrazol-4-yl]oxy-phenyl]-1-methyl-pyrazol-4-yl]pyrazolo[1,5-a]pyrimidine-3-carboxamide] were, in that order, 3 nM, 1.6 nM and 48 nM.
The like results for `Cn1cc(NC(=O)c2cnn3cccnc23)c(-c2cc(Oc3cnn(C4CNC4)c3)ccc2OC(F)F)n1` [Example 116, N-[3-[5-[l-(azetidin-3-yl)pyrazol-4-yl]oxy-2-(difluoromethoxy)phenyl]-1-methyl-pyrazol-4-yl]pyrazolo[1,5-a]pyrimidine-3-carboxamide] were, in that order, 1.5 nM, 0.84 nM and 95 nM.
The like results for `CN1CC(CC#N)(n2cc(Oc3ccc(OC(F)F)c(-c4nn(C)cc4NC(=O)c4cnn5cccnc45)c3)cn2)C1` [Example 117, N-[3-[5-[1-[3-(cyanomethyl)-1-methyl-azetidin-3-yl]pyrazol-4-yl]oxy-2-(difluoromethoxy)phenyl]-1-methyl-pyrazol-4-yl]pyrazolo[1,5-a]pyrimidine-3-carboxamide] were, in that order, 1.5 nM, 0.66 nM and 84 nM.

Values taken from patent publication US12528812B2 (Genentech, Inc., priority 2020, dated 2026).
